Laboratory results taken from the NIST ThermoML archive (doi:10.1016/j.jct.2015.03.019).
Values joined by “and” are separate entries in the source; they are usually repeats but may differ in a detail not shown here. Equal values may be shown once. ± gives the expanded uncertainty stated by the source.

Assay: molar heat capacity at constant pressure
Details: 101.33 kPa, Crystal, Small (less than 1 g) adiabatic calorimetry

CC(C)(C)c1ccc(Oc2ccccc2)cc1 [4-tert-butylphenyl phenyl ether]
Details | molar heat capacity at constant pressure
5 K | 0.671 ± 0.044 J/K/mol
7.93 K | 2.627 ± 0.12 J/K/mol
8.1 K | 2.719 ± 0.12 J/K/mol
8.28 K | 3.035 ± 0.14 J/K/mol
8.43 K | 3.06 ± 0.14 J/K/mol
8.59 K | 3.268 ± 0.15 J/K/mol
8.75 K | 3.459 ± 0.16 J/K/mol
8.9 K | 3.675 ± 0.17 J/K/mol
9.05 K | 3.725 ± 0.17 J/K/mol
9.2 K | 3.958 ± 0.17 J/K/mol
9.49 K | 4.365 ± 0.19 J/K/mol
9.63 K | 4.573 ± 0.2 J/K/mol
9.78 K | 4.881 ± 0.22 J/K/mol
9.92 K | 5.097 ± 0.22 J/K/mol
10 K | 4.906 ± 0.17 J/K/mol
10.28 K | 5.488 ± 0.24 J/K/mol
10.56 K | 5.961 ± 0.26 J/K/mol
10.85 K | 6.419 ± 0.27 J/K/mol
11.15 K | 6.884 ± 0.3 J/K/mol
12.02 K | 8.298 ± 0.36 J/K/mol
12.32 K | 8.896 ± 0.42 J/K/mol
12.61 K | 9.395 ± 0.42 J/K/mol
12.91 K | 9.977 ± 0.42 J/K/mol
13.21 K | 10.48 ± 0.42 J/K/mol
13.51 K | 11.06 ± 0.5 J/K/mol
13.81 K | 11.64 ± 0.5 J/K/mol
14.11 K | 12.22 ± 0.5 J/K/mol
14.41 K | 12.72 ± 0.5 J/K/mol
14.71 K | 13.3 ± 0.58 J/K/mol
15 K | 13.89 ± 0.33 J/K/mol
15.02 K | 13.97 ± 0.58 J/K/mol
15.32 K | 14.55 ± 0.58 J/K/mol
15.63 K | 15.05 ± 0.67 J/K/mol
15.94 K | 15.71 ± 0.67 J/K/mol
16.25 K | 16.3 ± 0.67 J/K/mol
16.56 K | 16.96 ± 0.75 J/K/mol
16.87 K | 17.63 ± 0.75 J/K/mol
17.18 K | 18.13 ± 0.75 J/K/mol
17.49 K | 18.96 ± 0.75 J/K/mol
17.8 K | 19.54 ± 0.83 J/K/mol
18.12 K | 20.12 ± 0.83 J/K/mol
18.43 K | 20.79 ± 0.83 J/K/mol
18.74 K | 21.29 ± 0.91 J/K/mol
19.06 K | 21.95 ± 0.91 J/K/mol
19.37 K | 22.7 ± 0.91 J/K/mol
19.68 K | 23.36 ± 1 J/K/mol
20 K | 23.95 ± 1 J/K/mol and 23.95 ± 0.58 J/K/mol
20.57 K | 25.05 ± 0.42 J/K/mol
21.33 K | 26.59 ± 0.44 J/K/mol
22.1 K | 28.07 ± 0.47 J/K/mol
22.86 K | 29.59 ± 0.48 J/K/mol
23.63 K | 31.1 ± 0.51 J/K/mol
24.4 K | 32.68 ± 0.53 J/K/mol
25 K | 33.84 ± 0.75 J/K/mol
25.18 K | 34.25 ± 0.55 J/K/mol
25.95 K | 35.83 ± 0.57 J/K/mol
26.73 K | 37.02 ± 0.58 J/K/mol
27.51 K | 38.42 ± 0.6 J/K/mol
28.29 K | 39.88 ± 0.62 J/K/mol
29.07 K | 41.31 ± 0.64 J/K/mol
29.85 K | 42.77 ± 0.66 J/K/mol
30 K | 43.07 ± 0.83 J/K/mol
30.63 K | 44.28 ± 0.67 J/K/mol
31.42 K | 45.65 ± 0.68 J/K/mol
32.21 K | 47 ± 0.71 J/K/mol
33 K | 48.3 ± 0.72 J/K/mol
33.79 K | 49.62 ± 0.74 J/K/mol
34.58 K | 50.93 ± 0.76 J/K/mol
35 K | 51.38 ± 0.58 J/K/mol
35.37 K | 52 ± 0.77 J/K/mol
36.16 K | 53.14 ± 0.79 J/K/mol
36.95 K | 54.29 ± 0.81 J/K/mol
37.74 K | 55.42 ± 0.82 J/K/mol
38.53 K | 56.54 ± 0.84 J/K/mol
39.32 K | 57.57 ± 0.86 J/K/mol
40 K | 58.7 ± 0.67 J/K/mol
40.11 K | 58.69 ± 0.55 J/K/mol
40.91 K | 59.85 ± 0.56 J/K/mol
41.7 K | 61.07 ± 0.57 J/K/mol
42.49 K | 62.01 ± 0.57 J/K/mol
43.29 K | 63.2 ± 0.59 J/K/mol
44.08 K | 64.35 ± 0.6 J/K/mol
44.88 K | 65.44 ± 0.61 J/K/mol
45 K | 65.52 ± 0.42 J/K/mol
45.68 K | 66.42 ± 0.62 J/K/mol
46.48 K | 67.56 ± 0.62 J/K/mol
47.28 K | 68.56 ± 0.63 J/K/mol
48.08 K | 69.68 ± 0.64 J/K/mol
48.87 K | 70.7 ± 0.65 J/K/mol
49.67 K | 71.74 ± 0.67 J/K/mol
50 K | 72.09 ± 0.5 J/K/mol
50.47 K | 72.8 ± 0.67 J/K/mol
51.27 K | 73.72 ± 0.68 J/K/mol
52.07 K | 74.77 ± 0.69 J/K/mol
52.87 K | 75.83 ± 0.7 J/K/mol
53.67 K | 77.23 ± 0.71 J/K/mol
56.08 K | 80.21 ± 0.73 J/K/mol
56.88 K | 81.22 ± 0.74 J/K/mol
57.68 K | 82.24 ± 0.75 J/K/mol
58.49 K | 83.23 ± 0.75 J/K/mol
59.3 K | 84.31 ± 0.75 J/K/mol
60 K | 85.31 ± 0.58 J/K/mol
60.1 K | 85.31 ± 0.75 J/K/mol
60.91 K | 86.3 ± 0.75 J/K/mol
61.71 K | 87.3 ± 0.83 J/K/mol
62.51 K | 88.3 ± 0.83 J/K/mol
64.11 K | 90.88 ± 0.83 J/K/mol
64.92 K | 91.87 ± 0.83 J/K/mol
65.72 K | 92.71 ± 0.83 J/K/mol
66.52 K | 93.62 ± 0.83 J/K/mol
67.33 K | 94.45 ± 0.83 J/K/mol
68.13 K | 95.12 ± 0.83 J/K/mol
68.94 K | 96.12 ± 0.91 J/K/mol
69.74 K | 96.95 ± 0.91 J/K/mol
70 K | 97.28 ± 0.5 J/K/mol
70.74 K | 97.94 ± 0.91 J/K/mol
71.95 K | 99.19 ± 0.91 J/K/mol
73.16 K | 100.61 ± 0.91 J/K/mol
74.36 K | 101.94 ± 0.91 J/K/mol
75.56 K | 102.6 ± 0.91 J/K/mol
76.77 K | 103.6 ± 0.91 J/K/mol
77.98 K | 104.6 ± 0.91 J/K/mol
79.18 K | 105.68 ± 1 J/K/mol
80 K | 106.59 ± 0.58 J/K/mol
80.21 K | 106.67 ± 0.58 J/K/mol
80.39 K | 106.92 ± 0.58 J/K/mol
81.01 K | 107.17 ± 0.67 J/K/mol
81.6 K | 108.09 ± 0.67 J/K/mol
81.81 K | 108.17 ± 0.67 J/K/mol
82.62 K | 108.84 ± 0.67 J/K/mol
82.8 K | 109.25 ± 0.67 J/K/mol
83.42 K | 109.58 ± 0.67 J/K/mol
84.01 K | 110.25 ± 0.67 J/K/mol
85.83 K | 111.83 ± 0.67 J/K/mol
86.63 K | 112.66 ± 0.67 J/K/mol
87.43 K | 113.33 ± 0.67 J/K/mol
88.23 K | 114.16 ± 0.67 J/K/mol
89.03 K | 115.07 ± 0.67 J/K/mol
89.84 K | 115.9 ± 0.67 J/K/mol
90 K | 115.99 ± 0.58 J/K/mol
90.64 K | 116.65 ± 0.67 J/K/mol
91.44 K | 117.48 ± 0.67 J/K/mol
92.24 K | 118.23 ± 0.67 J/K/mol
93.05 K | 119.15 ± 0.67 J/K/mol
93.85 K | 119.73 ± 0.67 J/K/mol
94.65 K | 120.48 ± 0.67 J/K/mol
95.46 K | 121.14 ± 0.67 J/K/mol
96.26 K | 121.97 ± 0.67 J/K/mol
97.06 K | 122.72 ± 0.67 J/K/mol
97.87 K | 123.22 ± 0.67 J/K/mol
98.67 K | 124.05 ± 0.67 J/K/mol
99.47 K | 125.13 ± 0.75 J/K/mol
100 K | 125.71 ± 0.58 J/K/mol
100.28 K | 125.8 ± 0.75 J/K/mol
101.28 K | 127.13 ± 0.75 J/K/mol
102.48 K | 128.13 ± 0.75 J/K/mol
103.69 K | 129.21 ± 0.75 J/K/mol
104.89 K | 130.45 ± 0.75 J/K/mol
106.1 K | 131.45 ± 0.75 J/K/mol
107.32 K | 132.78 ± 0.75 J/K/mol
108.53 K | 133.86 ± 0.75 J/K/mol
109.74 K | 134.86 ± 0.75 J/K/mol
110 K | 135.19 ± 0.67 J/K/mol
110.96 K | 136.11 ± 0.75 J/K/mol
112.17 K | 137.19 ± 0.75 J/K/mol
113.39 K | 138.27 ± 0.75 J/K/mol
114.61 K | 139.43 ± 0.75 J/K/mol
115.83 K | 140.51 ± 0.75 J/K/mol
117.05 K | 141.6 ± 0.75 J/K/mol
118.28 K | 142.59 ± 0.83 J/K/mol
119.5 K | 143.76 ± 0.83 J/K/mol
